Assay results as given in patent US20230150929A1, “SELECTIVE NON-CYCLIC NUCLEOTIDE ACTIVATORS FOR THE CAMP SENSOR EPAC1” (The Board of Regents of The University of Texas System, priority 2020, published 2023).

Molecular target: T1, EPAC1-CNBD (Homo sapiens, UniProt O95398)
T1 sequence (O95398 169-318 isoform O95398-3): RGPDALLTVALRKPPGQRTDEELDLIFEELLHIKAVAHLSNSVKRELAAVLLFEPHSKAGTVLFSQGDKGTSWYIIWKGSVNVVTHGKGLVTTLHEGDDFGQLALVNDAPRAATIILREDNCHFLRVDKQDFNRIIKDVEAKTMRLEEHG
Assay: 8-NBD-cAMP competition binding assay, EPAC1-CNBD
Conditions: for EPAC1 binding potency / affinity in words: SAR comment on RFI, mostly relative to 3 or 9a; for RFI (%) (relative fluorescence intensity), Table 1 / RFI (%) (relative fluorescence intensity), Table 2 / RFI (%) (relative fluorescence intensity), Table 3 / RFI (%) (relative fluorescence intensity), Table 4: compound 10 µM, EPAC1-CNBD 0.8 µM, 8-NBD-cAMP 62.5 nM, mean ± SEM, lower RFI = stronger binding

SMILES | EPAC1 binding potency / affinity in words | RFI (%) (relative fluorescence intensity), Table 1 | RFI (%) (relative fluorescence intensity), Table 4 | also measured
Cc1cc(C)c(S(=O)(=O)NC(=O)COc2cccc3ccccc23)c(C)c1 [Compound 9b, N-(Mesitylsulfonyl)-2-(naphthalen-1-yloxy)acetamide] | no significant improvement | 94 ± 5% |  | 
Cc1cc(C)c(S(=O)(=O)NC(=O)COc2ccc3cccnc3c2)c(C)c1 [Compound 9c, N-(Mesitylsulfonyl)-2-(quinolin-7-yloxy)acetamide] | no significant improvement | 92 ± 2% |  | 
CC(=O)c1c(OCC(=O)NS(=O)(=O)c2c(C)cc(C)cc2C)ccc2ccccc12 [Compound 9d, 2-((1-Acetylnaphthalen-2-yl)oxy)-N-(mesitylsulfonyl)acetamide] | no significant improvement | 104 ± 7% |  | 
COc1ccc2ccc(OCC(=O)NS(=O)(=O)c3c(C)cc(C)cc3C)cc2c1 [Compound 9e, N-(Mesitylsulfonyl)-2-((7-methoxynaphthalen-2-yl)oxy)acetamide] |  | 49 ± 3% |  | fold improvement in binding potency compared to 9a (from RFI at 10 µM): about 1.7 fold
Cc1cc(C)c(S(=O)(=O)NC(=O)COc2ccc3c(c2)CCCC3)c(C)c1 [Compound 9f, N-(Mesitylsulfonyl)-2-((5,6,7,8-tetrahydronaphthalen-2-yl)oxy)acetamide] | slightly decreased binding potency | 77 ± 2% |  | 
Cc1cc(C)c(S(=O)(=O)NC(=O)CNc2cccc(Cl)c2)c(C)c1 [Compound 9h, 2-((3-Chlorophenyl)amino)-N-(mesitylsulfonyl)acetamide] |  | 88 ± 9% |  | 
Cc1cc(C)c(S(=O)(=O)NC(=O)CSc2nc3ccccc3c(=O)[nH]2)c(C)c1 [Compound 9i, N-(Mesitylsulfonyl)-2-((4-oxo-3,4-dihydroquinazolin-2-yl)thio)acetamide] |  | 95 ± 4% |  | 
Cc1cc(C)c(S(=O)(=O)NC(=O)CN2CCc3ccccc3C2)c(C)c1 [Compound 9j, 2-(3,4-Dihydroisoquinolin-2(1H)-yl)-N-(mesitylsulfonyl)acetamide] |  | 102 ± 1% |  | 
COc1cc2c(cc1OC)CN(CC(=O)NS(=O)(=O)c1c(C)cc(C)cc1C)CC2 [Compound 9k, 2-(6,7-Dimethoxy-3,4-dihydroisoquinolin-2(1H)-yl)-N-(mesitylsulfonyl)acetamide] |  | 102 ± 5% |  | 
Cc1cc(C)c(S(=O)(=O)NC(=O)CN2CCn3c(nnc3C(F)(F)F)C2)c(C)c1 [Compound 9l, N-(Mesitylsulfonyl)-2-(3-(trifluoromethyl)-5,6-dihydro-[1,2,4]triazolo[4,3-a]pyrazin-7(8H)-yl)acetamide] |  | 104 ± 2% |  | 
Cc1cc(C)c(S(=O)(=O)NC(=O)CN2CCN(c3ccccn3)CC2)c(C)c1 [Compound 9m, N-(Mesitylsulfonyl)-2-(4-(pyridin-2-yl)piperazin-1-yl)acetamide] |  | 119 ± 8% |  | 
Cc1ccc(S(=O)(=O)NC(=O)COc2ccc3cc(Cl)ccc3c2)c(C)c1 [Compound 9n, 2-((6-Chloronaphthalen-2-yl)oxy)-N-((2,4-dimethylphenyl)sulfonyl)acetamide] |  |  |  | RFI (%) (relative fluorescence intensity), Table 2: 50 ± 2%
Cc1ccc(S(=O)(=O)NC(=O)COc2ccc3cc(F)ccc3c2)c(C)c1 [Compound 9o, 2-((6-Fluoronaphthalen-2-yl)oxy)-N-((2,4-dimethylphenyl)sulfonyl)acetamide] |  |  |  | RFI (%) (relative fluorescence intensity), Table 2: 55 ± 1%
Cc1ccc(S(=O)(=O)NC(=O)COc2ccc3ccc(Cl)cc3c2)c(C)c1 [Compound 9p, 2-((7-Chloronaphthalen-2-yl)oxy)-N-((2,4-dimethylphenyl)sulfonyl)acetamide] |  |  |  | RFI (%) (relative fluorescence intensity), Table 2: 66 ± 2%
Cc1ccc(S(=O)(=O)NC(=O)COc2cccc3ccccc23)c(C)c1 [Compound 9q, N-((2,4-dimethylphenyl)sulfonyl)-2-(naphthalen-1-yloxy)acetamide] |  |  |  | RFI (%) (relative fluorescence intensity), Table 2: 71 ± 1%
Cc1ccc(S(=O)(=O)NC(=O)COc2ccc3[nH]ccc3c2)c(C)c1 [Compound 9r, 2-((1H-Indol-5-yl)oxy)-N-((2,4-dimethylphenyl)sulfonyl)acetamide] |  |  |  | RFI (%) (relative fluorescence intensity), Table 2: 91 ± 2%
Cc1ccc(S(=O)(=O)NC(=O)COc2ccc3[nH]ncc3c2)c(C)c1 [Compound 9s, 2-((1H-Indazol-5-yl)oxy)-N-((2,4-dimethylphenyl)sulfonyl)acetamide] |  |  |  | RFI (%) (relative fluorescence intensity), Table 2: 94 ± 4%
Cc1cc(C)c(S(=O)(=O)NC(=O)CNc2ccc3ccccc3c2)c(C)c1 [Compound 12b, N-(Mesitylsulfonyl)-2-(naphthalen-2-ylamino)acetamide] |  |  |  | RFI (%) (relative fluorescence intensity), Table 3: 97 ± 5%
Cc1cc(C)c(S(=O)(=O)NCCOc2ccc3ccccc3c2)c(C)c1 [Compound 12c, 2,4,6-Trimethyl-N-(2-(naphthalen-2-yloxy)ethyl)benzenesulfonamide] | partial or complete loss of binding activity |  |  | RFI (%) (relative fluorescence intensity), Table 3: 105 ± 4%
Cc1cc(C)c(S(=O)(=O)N2CCC(Oc3ccc4ccccc4c3)CC2)c(C)c1 [Compound 12d, 1-(Mesitylsulfonyl)-4-(naphthalen-2-yloxy)piperidine] | partial or complete loss of binding activity |  |  | RFI (%) (relative fluorescence intensity), Table 3: 105 ± 3%
Cc1cc(C)c(S(=O)(=O)NC(=O)C(F)Oc2ccc3ccccc3c2)c(C)c1 (stereo not drawn) [Compound 12e, 2-Fluoro-N-(mesitylsulfonyl)-2-(naphthalen-2-yloxy)acetamide] |  |  |  | RFI (%) (relative fluorescence intensity), Table 3: 82 ± 4%
Cc1ccc(S(=O)(=O)NC(=O)C(C)(C)Oc2ccc3ccccc3c2)c(C)c1 [Compound 12f, N ((2,4-Dimethylphenyl)sulfonyl)-2-methyl-2-(naphthalen-2-yloxy)propenamide] | partial or complete loss of binding activity |  |  | RFI (%) (relative fluorescence intensity), Table 3: 76 ± 3%
Cc1ccc(S(=O)(=O)NCCOc2ccc3ccccc3c2)c(C)c1 [Compound 12g, 2,4-Dimethyl-N-(2-(naphthalen-2-yloxy)ethyl)benzenesulfonamide] | partial or complete loss of binding activity |  |  | RFI (%) (relative fluorescence intensity), Table 3: 81 ± 3%

Continued, in another order:

EPAC1 binding potency / affinity in words | RFI (%) (relative fluorescence intensity), Table 1 | RFI (%) (relative fluorescence intensity), Table 4 | SMILES | also measured
completely inhibit EPAC binding potency |  |  | Cc1cc(C)c(S(=O)(=O)NC(=O)CSc2ccc3ccccc3c2)c(C)c1 [Compound 12a, N-(Mesitylsulfonyl)-2-(naphthalen-2-ylthio)acetamide] | RFI (%) (relative fluorescence intensity), Table 3: 92 ± 2%
 |  | 38 ± 2% | Cc1cc(C)cc(S(=O)(=O)NC(=O)COc2ccc3ccccc3c2)c1 [Compound 25a, N-((3,5-Dimethylphenyl)sulfonyl)-2-(naphthalen-2-yloxy)acetamide] | fold binding potency increase versus compound 3 (from RFI at 10 µM): about 1.6 fold
complete loss of affinity |  | 81±3% | O=C(COc1ccc2ccccc2c1)NS(=O)(=O)C1CCCCC1 [Compound 25aa, N-(Cyclohexylsulfonyl)-2-(naphthalen-2-yloxy)acetamide] | 
 |  | 53 ± 2% | O=C(COc1ccc2ccccc2c1)NS(=O)(=O)c1cccc(-c2ccoc2)c1 [Compound 25ab, N-3-(Furan-3-yl)phenylsulfonyl-2-(naphthalene-2-yloxy)acetamide] | 
 |  | 35± 1% | O=C(COc1ccc2ccccc2c1)NS(=O)(=O)c1cccc(-c2ccccc2)c1 [Compound 25ac, N-([1,1′-Biphenyl]-3-ylsulfonyl)-2-(naphthalene-2yloxy)acetamide] | 
 |  | 71 ± 1% | COC(=O)c1cccc(S(=O)(=O)NC(=O)COc2ccc3ccccc3c2)c1 [Compound 25ad, Methyl 3-(N-(2-(naphthalene-2-yloxy)acetyl)sulfamoyl)benzoate] | 
decreased the binding potency |  | 69 ± 2% | O=C(COc1ccc2ccccc2c1)NS(=O)(=O)c1ccccc1F [Compound 25b, N-((2-Fluorophenyl)sulfonyl)-2-(naphthalen-2-yloxy)acetamide] | 
decreased the binding potency |  | 82 ± 4% | O=C(COc1ccc2ccccc2c1)NS(=O)(=O)c1cccc(F)c1 [Compound 25c, N-((3-Fluorophenyl)sulfonyl)-2-(naphthalen-2-yloxy)acetamide] | 
decreased the binding potency |  | 81 ± 4% | O=C(COc1ccc2ccccc2c1)NS(=O)(=O)c1ccc(F)cc1 [Compound 25d, N-((4-Fluorophenyl)sulfonyl)-2-(naphthalen-2-yloxy)acetamide] | 
 |  | 72 ± 4% | COc1ccc(OC)c(S(=O)(=O)NC(=O)COc2ccc3ccccc3c2)c1 [Compound 25h, N-((2,5-Dimethoxyphenyl)sulfonyl)-2-(naphthalen-2-yloxy)acetamide] | 
 |  | 50 ± 3% | COc1ccc(S(=O)(=O)NC(=O)COc2ccc3ccccc3c2)cc1OC [Compound 25i, N-((3,4-Dimethoxyphenyl)sulfonyl)-2-(naphthalen-2-yloxy)acetamide] | 
 |  | 58 ± 2% | Cc1cc(Br)cc(S(=O)(=O)NC(=O)COc2ccc3ccccc3c2)c1 [Compound 25j, N-((3-Bromo-5-methylphenyl)sulfonyl)-2-(naphthalen-2-yloxy)acetamide] | 
 |  | 29 ± 8% | COc1ccc2ccc(OCC(=O)NS(=O)(=O)c3cc(C)cc(Br)c3)cc2c1 [Compound 25k, N-((3-Bromo-5-methylphenyl)sulfonyl)-2-((7-methoxynaphthalen-2-yl)oxy)acetamide] | 
